In EP0825187A1, “Condensed pyridazinyl guanidines, their production and use” (TAKEDA CHEMICAL INDUSTRIES, LTD., priority 1996, dated 1998):
Where a name gives a salt, the structure may show the parent alone.

Molecular target: T1, Na-H exchange (Rattus norvegicus, UniProt P26431)
T1 construct: The blood was centrifuged at 3000 r.p.m. for […] to obtain platelet rich plasma (PRP); from tissue; host or cells: platelets in platelet rich plasma from the blood of male Wistar rats
Assay: Inhibition of platelet swelling (light transmittance of platelet rich plasma after sodium propionate), indicator of Na-H exchange inhibition
Format: cell-based, Wistar rats
Settings: rat PRP, value one minute after sodium propionate solution (pH 6.7, 37 °C), difference between 1% DMSO and HOE-642 (10^-5 M) taken as 100
Procedure: Male Wistar rats (350-450 g) were anesthetized with sodium pentobarbital (50 mg/kg, i.p.). Using a disposable syringe pre-filled with 1.5 ml of a 3.8% citric acid solution, 8.5 ml of blood was collected from the abdominal aorta. The blood was centrifuged at 3000 r.p.m. for […] to obtain platelet rich plasma (PRP). The number of platelets in the PRP was counted by an automatic hemocytometer (Sysmex 2500, TOA Medical Electronics). The PRP was diluted with physiological saline to make the concentration of 40 x 10^4 platelets per microliter. A platelet aggregometer (Hematoracer, Niko Bioscience) was used for mesurement of the platelet swelling. 200 Microliters of the PRP was poured into a cuvette and 600 µl of a sodium propionate solution (Na propionate 135, glucose 10: HEPES 20, CaCl2 1, MgCl2 1, Units mM, pH 6.7) was added while stirring at 37 °C. The change in the light transmittance of PRP which was an indicator of the platelet swelling was recorded on a plotter. The test compound was added 3 minutes before addition of the sodium propionate solution. Test compounds were dissolved in dimethyl sulfoxide (DMSO). The final concentration of DMSO was adjusted to 1%. The values obtained one minute after addition of the sodium propionate solution were subjected to analysis. The rate of the inhibition of the test compound on the increase of the light transmittance was calculated designating the difference obtained between the treatments with 1% DMSO and HOE-642 (10^-5 M) as 100. […]

T1 sequence (P26431 whole entry): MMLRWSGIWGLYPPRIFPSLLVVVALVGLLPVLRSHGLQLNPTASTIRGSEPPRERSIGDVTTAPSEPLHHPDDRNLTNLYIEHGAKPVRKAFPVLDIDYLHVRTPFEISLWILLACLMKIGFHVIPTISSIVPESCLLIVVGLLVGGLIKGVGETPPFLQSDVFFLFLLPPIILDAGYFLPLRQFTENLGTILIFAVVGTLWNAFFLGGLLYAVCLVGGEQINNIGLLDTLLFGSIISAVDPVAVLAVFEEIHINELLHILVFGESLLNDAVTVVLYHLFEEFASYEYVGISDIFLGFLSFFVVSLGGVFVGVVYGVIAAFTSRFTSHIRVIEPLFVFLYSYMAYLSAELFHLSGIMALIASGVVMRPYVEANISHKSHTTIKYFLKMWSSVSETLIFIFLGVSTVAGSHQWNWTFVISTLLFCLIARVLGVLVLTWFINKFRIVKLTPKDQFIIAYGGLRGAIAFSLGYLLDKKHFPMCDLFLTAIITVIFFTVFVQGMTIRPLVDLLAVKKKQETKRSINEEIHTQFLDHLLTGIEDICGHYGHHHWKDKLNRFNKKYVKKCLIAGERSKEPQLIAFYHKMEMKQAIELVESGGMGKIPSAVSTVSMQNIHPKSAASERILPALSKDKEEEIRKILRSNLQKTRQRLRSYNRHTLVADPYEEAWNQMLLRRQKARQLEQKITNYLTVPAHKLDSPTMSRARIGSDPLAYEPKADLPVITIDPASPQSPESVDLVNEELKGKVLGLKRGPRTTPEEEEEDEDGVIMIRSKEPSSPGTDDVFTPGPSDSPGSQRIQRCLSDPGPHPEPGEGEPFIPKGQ

| Inhibitory ratio (%) (1µM) | Inhibitory ratio (%) (3µM) | Compound |
| --- | --- | --- |
| 55% | 73% | 8-methyl-4-(2-methylphenyl)phthalazin-1-ylguanidine [Compound 44] |
| 60% | 99% | NC(N)=Nc1nnc(-c2ccccc2)c2cccc(Br)c12 [Compound 13, 8-bromo-4-phenylphthalazin-1-ylguanidine] |
| 66% | 96% | Cc1ccccc1-c1nnc(N=C(N)N)c2c(I)cccc12 [Compound 28, 8-iodo-4-(2-methylphenyl)phthalazin-1-ylguanidine] |
| 58% | 78% | NC(N)=Nc1nnc(-c2ccc(F)cc2)c2cccc(I)c12 [Compound 36, 4-(4-fluorophenyl)-8-iodophthalazin-1-ylguanidine] |

Further lines, the compound ahead of its results:

| Compound | Inhibitory ratio (%) (1µM) | Inhibitory ratio (%) (3µM) |
| --- | --- | --- |
| NC(N)=Nc1nnc(-c2ccccc2)c2cccc(I)c12 [Compound 4, 8-iodo-4-phenylphthalazin-1-ylguanidine hydrochloride] | 66% | 78% |
| Cc1ccccc1-c1nnc(N=C(N)N)c2c(Br)cccc12 [Compound 24, 8-bromo-4-(2-methylphenyl)phthalazin-1-ylguanidine] | 62% | 78% |
